Experimental data published in patent US4525475A, “Prevention of thrombolic disorder with imidazole derivatives and salts thereof” (priority 1979, dated 1985).
Like-named read-outs stand apart in the source and are kept apart here.

Legend:
TXA2 synthetase = target: T1, TXA2 synthetase (Equus caballus, UniProt A0A9L0T8T9); test: Inhibition of TXA2 synthetase: thromboxane (thromboxane B2) produced from labelled arachidonic acid by homogenised horse platelets; format: biochemical; details: horse platelet homogenate, 100 mM Tris buffer pH 7.4, 5 min preincubation at ambient temperature, 3 min at 37° C. with arachidonic acid
T1 construct: labelled arachidonic acid as substrate, thromboxane B2 measured by TLC
T1 sequence (A0A9L0T8T9 2-534): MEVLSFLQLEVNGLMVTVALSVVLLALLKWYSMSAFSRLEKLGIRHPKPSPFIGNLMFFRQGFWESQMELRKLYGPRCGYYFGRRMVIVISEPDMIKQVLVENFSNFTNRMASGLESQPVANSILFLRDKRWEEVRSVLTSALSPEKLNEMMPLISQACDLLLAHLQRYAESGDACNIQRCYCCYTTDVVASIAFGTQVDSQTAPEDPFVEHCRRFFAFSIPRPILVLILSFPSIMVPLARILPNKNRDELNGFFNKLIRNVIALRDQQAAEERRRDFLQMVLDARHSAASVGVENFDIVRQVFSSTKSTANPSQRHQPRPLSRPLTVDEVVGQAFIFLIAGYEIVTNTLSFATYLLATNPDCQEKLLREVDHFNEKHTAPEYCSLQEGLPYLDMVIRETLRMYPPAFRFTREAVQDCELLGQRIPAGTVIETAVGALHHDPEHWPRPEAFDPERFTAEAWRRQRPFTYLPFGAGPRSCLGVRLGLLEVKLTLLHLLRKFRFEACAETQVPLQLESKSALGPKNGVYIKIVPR
Method: (§1) Horse platelets were prepared from whole horse blood by differential centrifugation. Approximately 10^6 platelets were homogenised in 1 ml 100 mM Tris buffer pH 7.4. Various concentrations of active compound were added and the reaction sets incubated for 5 minutes at ambient temperature. To each tube was added 20 nM of arachidonic acid containing 10^6 disintegrations per minute (DPM) of labelled arachidonic acid and the tubes incubated for 3 minutes at 37° C. in a shaking water bath. After incubation the radioactive products were extracted from the acidified aqueous phase with ethyl acetate and after concentration resolved by thin layer chromatography on silica gel with chloroform/methanol/acetic acid/water (90:8:1:0.8) as a developing solvent. The amount of thromboxane produced was measured by scraping the radioactive zone corresponding to thromboxane B2 and estimating the radioactivity in a liquid scintillation counter.
The concentration of active compound to reduce the enzyme activity by 50% (ED50) was established.

PGE, PGF and PGD = test: Selectivity: amount of PGE, PGF and PGD produced, measured in a similar manner to the thromboxane test; format: biochemical, horse; set-up: key: 0: no selectivity; +: low selectivity; ++: medium selectivity; +++: high selectivity; ++++: exceptionally high selectivity; details: greater selectivity = more anti-aggregating prostaglandins produced
Method: as §1
The selectivity of the active compounds was measured in a similar manner to that described above and the amount of PGE, PGF and PGD produced was determined. The greater the selectivity, the more of the anti-aggregating prostaglandins are produced.
The ED50 and Selectivity results are shown in Table A in which 0 indicates no selectivity; +low selectivity; ++medium selectivity; +++high selectivity: ++++exceptionally high selectivity; ND not determined.

[1] = test system: enzymic conversion of the endoperoxides (PGG2 and PGH2) to thromboxane A2 by platelet microsomes; details: Moncada et al., Prostaglandins, 13/4, 611-618, 1977; cited from earlier work
serum cholesterol = details: U.K. Pat. No. 1 364 312; Biochem. Pharmacol., 24, 1902-1903, 1975; cited from earlier work
[2] = read-out: ED50 (concentration of active compound to reduce the enzyme activity by 50%) (converted)

IC50 (TXA2 synthetase; [2]) [µM] | Structure (SMILES) | Selectivity (PGE, PGF and PGD) | inhibition of the enzymic conversion of the endoperoxides to thromboxane A2 [1] | IC50 (TXA2 synthetase; read-out: ED50 (concentration of active compound to reduce the enzyme activity by 50%)) [µM] | lowering serum cholesterol levels (serum cholesterol)
57.4 | C1=CC2CC1CC2Cn1ccnc1 (centres unmarked) [Example 3, 1-(Bicyclo[2.2.1]hept-5-en-2-ylmethyl)imidazole] | +++ | – | – | –
19.7 | CC1(C)C2CCC(CCn3ccnc3)C1C2 (centres unmarked) [Example 1, 1-[2-(6,6-dimethylbicyclo[3.1.1]heptan-2-yl)ethyl]imidazole] | +++ | – | – | –
– | c1c[nH]cn1 [Imidazole] | – | some degree of inhibition | ≥ 7340 | –
16.2 | CC1(C)C2CC=C(CCn3ccnc3)C1C2 (centres unmarked) [Example 2, 1-[2-(6,6-Dimethylbicyclo[3.1.1]hept-2-en-2-yl)ethyl]imidazole] | +++ | – | – | –
24.5 | CC1(C)C2CCC(Cn3ccnc3)C1C2 (centres unmarked) [Example 8, 1-(6,6-Dimethylbicyclo[3.1.1]heptan-2-ylmethyl)imidazole] | +++ | – | – | –
< 69.3 | CC1(C)C(=CCn2ccnc2)C2CCC1C2 (centres unmarked) [15 (b), 1-[2-(3,3-Dimethylbicyclo[2.2.1]heptan-2-ylidene)ethyl]imidazole] | – | – | – | –
74.1 | CC1(C)C2CC=C(Cn3ccnc3)C1C2 (centres unmarked) [Example 7, 1-(6,6-Dimethylbicyclo[3.1.1]hept-2-en-2-ylmethyl)imidazole] | +++ | – | – | –
28.4 | c1cn(CC2CC3CCC2C3)cn1 (centres unmarked) [Example 4, 1-(Bicyclo[2.2.1]heptan-2-ylmethyl)imidazole] | +++ | – | – | –
< 57.4 | c1cn(CC2C3CC4C(C3)C24)cn1 (centres unmarked) [15 (c), 1-(Tricyclo[2.2.1.0^3,5]heptan-2-ylmethyl)imidazole] | +++ | – | – | –
290 | c1cn(C2CC3CCC2C3)cn1 (centres unmarked) [Example 11, 1-(Bicyclo[2.2.1]heptan-2-yl)imidazole] | – | – | – | –
– | CCCCCCCCCCCCn1ccnc1 [1-n-dodecylimidazole] | – | – | – | capable of lowering serum cholesterol levels
89.2 | C1=CC2CC1CC2CC(C1CC2C=CC1C2)n1ccnc1 (centres unmarked) [Example 13, 1-{1,2-[Bis-(bicyclo[2.2.1]hept-5-en-2-yl)]ethyl}imidazole] | ++ | – | – | –
65.1 | c1cn(CCC23CC4CC(CC(C4)C2)C3)cn1 [Example 9, 1-[2-(Adamantan-1-yl)ethyl]imidazole] | ++++ | – | – | –
> 225 | c1cn(CC2COC3(CCCCC3)O2)cn1 (centres unmarked) [Example 10, 1-(1,4-Dioxaspiro[4.5]decan-2-ylmethyl)imidazole] | – | – | – | –

Structure (SMILES) | IC50 (TXA2 synthetase; [2]) [µM] | Selectivity (PGE, PGF and PGD) | inhibition of the enzymic conversion of the endoperoxides to thromboxane A2 [1] | IC50 (TXA2 synthetase; read-out: ED50 (concentration of active compound to reduce the enzyme activity by 50%)) [µM] | lowering serum cholesterol levels (serum cholesterol)
Cn1ccnc1 [1-Methylimidazole, reference compound] | ≥ 2440 | ++ | some degree of inhibition | – | –
c1cn(CC2CN3CCC2CC3)cn1 (centres unmarked) [Example 12, 1-(1-Azabicyclo[2.2.2]octan-3-ylmethyl)imidazole] | 157 | ++ | – | – | –
